Test [1] relates to excised pigmented rabbit lenses. Put plainly: Inhibition of lens changes caused by oxidative damage (diquat-exposed excised pigmented rabbit lenses; GSH loss and MDA formation). The note with it: Oryctolagus cuniculus, 1 mM test compound, 1 mM diquat, 3 h at 37° C. It counts as cell-based. On the procedure: (§1) Evaluation of Cytoprotective Ability
Inhibition of lens changes caused by oxidative damage by representative compounds of the present invention as compared with the cysteine prodrug, 2-oxo-4-thiazolidine carboxylic acid, (Sigma Chemical Company, St Louis Mo.) is shown in Table 2 below. The cytoprotective effect was measured using excised pigmented rabbit lenses exposed to diquat using the method of Bhuyan (Free Radical Biology & Medicine, volume 12, pages 251-261, 1992). Normal lenses were extracted from the eyes immediately after sacrificing the pigmented rabbits. The lens were incubated in modified Krebs-Ringers bicarbonate medium containing 1 mM diquat dibromide monohydrate (Imperial Chemical Industries Ltd., London) and the test compound (1 mM). A non-test drug containing group was used as control. The lenses were incubated for 3 h at 37° C. in a shaking water bath. At the end of the incubation period each lens was removed and homogenated. Glutathione (GSH) and maliondialdehyde (MDA) levels were established by treating the supernatant with trichloracetic acid to precipitate proteins, and then using aliquots of the TCA supernatant to determine glutathione and MDA levels according to standard procedures. Degree of protection was measured as inhibition of GSH loss and inhibition of malondialdehyde formation.

In test [2] the test system is bovine retinal pieces. Put plainly: Inhibition of lipid peroxide formation (TBARS) in hypoxic/reoxygenated bovine retinal pieces. The class given is cell-based. As to conditions: Bos taurus, hypoxia 1 h, test agent added after 50 min, reoxygenation 1 h; for inhibition at 100 µM: 0.1 mM, read-out: % Inhibition of TBARS Production (0.1 mM); for IC50: read-out: IC50 (inhibition of TBARS production). On the procedure: as §1
Inhibition of lipid peroxide formation by representative compounds of the present invention as compared with the cysteine prodrug, 2-oxo-4-thiazolidine carboxylic acid, (Sigma Chemical Company, St Louis Mo.) is shown in Table 1 below. The cytoprotective effect of the compound was measured using bovine retinal pieces. Retinal tissues were incubated in hypoxic media for 1 h. After 50 min. of hypoxia the test agents were added to the media to allow 10 min. for the drug to diffuse into the tissue prior to reoxygenation. The vehicle by itself, was added to the non-drug group. Following the incubation period, tissue was reoxygenated for 1 h. Lipid peroxidation was assessed by the formation of thiobarbituric acid reacting substances (TBARS). The tissues were homogenized and added to the trichloroacetic acid-thiobarbituric acid reagent and heated in the presence of BHT. The homogenate was filtered and the absorbance of the supernant was measured spectrophotometrically. A double derivative technique was used to calculate the concentration of TBARS present in each sample. Quantiation was based on a molar extinction coefficient of 1.56×10^5.

[3] abbreviates: read-out: % Inhibition GSH loss.
Setting [4] is: read-out: % Inhibition MDA formation.

Like-named read-outs stand apart in the source and are kept apart here.

On to `O=C1NC(C(=O)O)CS1` (stereo not drawn) [2-oxo-4-thiazolidine carboxylic acid, reference compound], for which the inhibition at 1000 µM in test [1] (setting [3]) is 9.4%; in test [1] (setting [4]), 28%. Besides, in test [2], the inhibition at 100 µM was -38%.

For `CC(C)(C)c1cc(C2N[C@H](C(=O)O)CS2)cc(C(C)(C)C)c1O` (stereo partly drawn) [Example 1, (4R)-2-(3,5-di-tert-butyl-4-hydroxyphenyl)-4-thiazolidine carboxylic acid], the inhibition at 1000 µM in test [1] (setting [3]) worked out at 40%. For the same compound, the inhibition at 1000 µM in test [1] (setting [4]) turned out to be 76%. In test [2], the inhibition at 100 µM came to 95% and the IC50 was 50 nM.

Take `Cc1c(C)c2c(c(C)c1O)CCC(C)(C1N[C@H](C(=O)O)CS1)O2` (stereo partly drawn) [Example 2, (4R)-2-(6-hydroxy-2,5,7,8-tetramethyl-3,4-dihydro-2H-benzo[1,2-b]pyran-2-yl)-4-thiazolidine carboxylic acid]: in test [2], the inhibition at 100 µM is 90% and the half-inhibitory concentration (IC50) stood at 3000 nM.

Values taken from patent US5846988A, “Thiazolidine-4-carboxylic acid derivatives as cytoprotective agents” (Alcon Laboratories, Inc., priority 1997, dated 1998).
